Reference: ChEMBL document CHEMBL3232918, “Core modification of substituted piperidines as novel inhibitors of HDM2-p53 protein-protein interaction” (Bioorg Med Chem Lett, 2014)

How the values were obtained:
SJSA-1 = assay: Antiproliferative activity against human SJSA1 cells
[1] = Oral bioavailability in mouse at 20 mg/kg; type: ADME, organism-based; details: in vivo
[2] = AUC in mouse at 20 mg/kg, iv and 20 mg/kg, po; type: ADME, organism-based; details: plasma
[3] = Permeability of the compound in human Caco2 cells; type: ADME, cell-based; details: Caco-2, read-out: permeability
[4] = target: E3 ubiquitin-protein ligase Mdm2 (Homo sapiens, UniProt Q00987); assay: Binding affinity to HDM2 (unknown origin) by fluorescence polarization peptide displacement assay
E3 ubiquitin-protein ligase Mdm2, sequence (Q00987 whole entry): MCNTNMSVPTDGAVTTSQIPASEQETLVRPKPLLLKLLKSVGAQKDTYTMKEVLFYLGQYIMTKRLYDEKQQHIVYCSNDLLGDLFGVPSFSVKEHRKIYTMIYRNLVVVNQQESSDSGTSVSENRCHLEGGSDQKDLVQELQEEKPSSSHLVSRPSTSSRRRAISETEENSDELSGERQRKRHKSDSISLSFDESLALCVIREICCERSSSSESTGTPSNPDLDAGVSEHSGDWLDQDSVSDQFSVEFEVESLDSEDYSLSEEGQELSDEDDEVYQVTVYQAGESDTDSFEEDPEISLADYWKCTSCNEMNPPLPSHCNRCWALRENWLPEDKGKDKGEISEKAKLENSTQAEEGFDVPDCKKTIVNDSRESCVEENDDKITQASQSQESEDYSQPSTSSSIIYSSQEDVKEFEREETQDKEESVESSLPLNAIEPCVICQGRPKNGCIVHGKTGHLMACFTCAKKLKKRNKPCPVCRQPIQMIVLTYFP

Structure (SMILES)	IC50 (SJSA-1) [µM]	bioavailability [1] [%]	AUC [2] [µM·h]	Papp [3] [×10⁻⁶ cm/s]	IC50 [4] [µM]
C=CC[C@H]1N(C(=O)c2cnccc2C(F)(F)F)CCC[C@@]1(Oc1ccc(C(F)(F)F)cc1)C(=O)N1CCN(c2ccccc2OCCOC)CC1	1	–	–	–	–
COc1ccccc1N1CCN(C(=O)[C@]2(Oc3ccc(C(F)(F)F)cc3)CCCN(C(=O)c3cnccc3C(F)(F)F)C2)CC1	5.5	19	1.9	15.8	–
COCCOc1ccccc1N1CCN(C(=O)[C@]2(Oc3ccc(C(F)(F)F)cc3)CCCN(C(=O)c3cnccc3C(F)(F)F)C2)CC1	4.7	32	1.1	20.3	–
COCCOc1ccccc1N1CCN(C(=O)[C@]2(Oc3ccc(C(F)(F)F)cc3)CC[C@H](c3ccccc3)N(C(=O)c3cnccc3C(F)(F)F)C2)CC1	–	–	–	–	> 10
COc1ccc(C2=N[C@@H](c3ccc(Cl)cc3)[C@@H](c3ccc(Cl)cc3)N2C(=O)N2CCNC(=O)C2)c(OC(C)C)c1 [NUTLIN-3]	1.9	–	–	12.6	–
